Consider eleven compounds from ChEMBL document CHEMBL1201862, “PubChem BioAssay data set” (2004).

SMILES strings stand for the structures.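 A five-concentration, 48-hour dose response in 96-well plates underlies each endpoint, interpolated linearly between surrounding concentrations. At the GI50, growth is halved.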 The source made the active and inactive calls. No stated cut-off is given here; in the data, active = GI50 up to about 1.1 µM and inactive = higher. Bounds are passed on as bounds.

Among the test systems are A549; ACHN; HCC 2998; K562; KM12; MOLT-4; NCI-H460; NCI-H522; OVCAR-4; RPMI-8226; SF-268; SK-MEL-28; SK-MEL-5; SK-OV-3; SNB-19; TK-10; UACC-257; UACC-62; UO-31.
Holding throughout (test): NCI-60 cell line screen, 48 h

Consider `COc1ccc(C(N)=O)cc1/N=N/N(C)C`, for which the GI50 with A549, in the test with ACHN, with HCC 2998, in the test on K562, with KM12 and in the test on MOLT-4 was > 100 µM (inactive) throughout. In addition, the GI50 in the test on NCI-H460, in the test on NCI-H522, with OVCAR-4, in the test on RPMI-8226, with SF-268 and in the test on SK-MEL-28 was > 100 µM (inactive) in each case. For the same compound, the GI50 in the test with SK-MEL-5, with SK-OV-3, with SNB-19, in the test with TK-10, with UACC-257 and in the test on UACC-62 was > 100 µM (inactive) throughout. For the same compound, the GI50 in the test on UO-31 was > 100 µM (inactive).

With `O=c1[nH]cnc(NC2C=C(CO)C(O)C2O)c1[N+](=O)[O-]` (centres undefined), the GI50 with A549 was > 83.2 µM (inactive); in the test with ACHN it was > 100 µM (inactive); in the test on HCC 2998, > 100 µM (inactive); with K562, > 100 µM (inactive); in the test with KM12 it was > 100 µM (inactive); in the test with MOLT-4 it was > 100 µM (inactive). Besides, the GI50 in the test with NCI-H460 is > 40.1 µM (inactive); with NCI-H522, > 100 µM (inactive); in the test on OVCAR-4, > 100 µM (inactive); in the test with RPMI-8226, > 45.9 µM (inactive); in the test on SF-268, > 100 µM (inactive); with SK-MEL-28, > 100 µM (inactive). The GI50 in the test on SK-MEL-5, in the test with SK-OV-3, in the test on SNB-19, in the test with TK-10, with UACC-257 and with UACC-62 was > 100 µM (inactive) in each case. Further, the GI50 in the test with UO-31 is > 100 µM (inactive).

In the case of `CC1(C=O)C(=O)CCC2(C)C3CC(=O)OC3CCC12` (centres undefined), the GI50 with A549, in the test with ACHN, in the test with HCC 2998, in the test on K562, in the test with KM12 and with MOLT-4 was > 100 µM (inactive) each time. Besides, the GI50 with NCI-H460, in the test with NCI-H522, in the test on OVCAR-4, in the test on RPMI-8226, with SF-268 and in the test on SK-MEL-28 was > 100 µM (inactive) throughout. In addition, the GI50 in the test on SK-MEL-5, with SK-OV-3, in the test on SNB-19, in the test on TK-10, in the test on UACC-257 and in the test with UACC-62 was > 100 µM (inactive) in each case. Besides, the GI50 in the test on UO-31 is > 100 µM (inactive).

As to `Clc1ccccc1CN1COc2c(ccc3cccnc23)C1`, the GI50 in the test with A549 was 3.75 µM (inactive); in the test with ACHN, 3.72 µM (inactive); in the test on HCC 2998, 6.95 µM (inactive); in the test on K562, 2.12 µM (inactive); with KM12 it was 3.98 µM (inactive); with MOLT-4, 2.22 µM (inactive). Also, the GI50 in the test with NCI-H460 is 5.19 µM (inactive); in the test with NCI-H522 it was 0.404 µM (active); in the test on OVCAR-4, 3.6 µM (inactive); in the test on RPMI-8226, 2.73 µM (inactive); with SF-268, 3.65 µM (inactive); with SK-MEL-28 it was 3.61 µM (inactive). For the same compound, the GI50 with SK-MEL-5 is 2.77 µM (inactive); in the test on SK-OV-3 it was 8.05 µM (inactive); in the test with SNB-19, 11.8 µM (inactive); with TK-10 it was 10.4 µM (inactive); in the test on UACC-257, 2.72 µM (inactive); with UACC-62, 3.09 µM (inactive). Besides, in the test on UO-31, the GI50 is 1.8 µM (inactive).

On to `COC(=O)C1C(=O)CC2CCCCC21` (centres undefined), for which the GI50 in the test with A549, in the test with ACHN, in the test with HCC 2998, in the test on K562, in the test with KM12 and in the test on MOLT-4 was > 100 µM (inactive) each time. The GI50 with NCI-H460, with NCI-H522, in the test with OVCAR-4, in the test with RPMI-8226, in the test with SF-268 and in the test with SK-MEL-28 was > 100 µM (inactive) each time. Besides, the GI50 in the test with SK-MEL-5, with SK-OV-3, with SNB-19, in the test with TK-10, with UACC-257 and in the test with UACC-62 was > 100 µM (inactive) throughout. The GI50 in the test on UO-31 is > 100 µM (inactive).

Take `CCOP1(=O)C=C(C)C(Cl)=C(C)C1` (centres undefined): the GI50 is 21.1 µM (inactive) in the test with A549; 24.6 µM (inactive) in the test on ACHN; 80.2 µM (inactive) in the test on HCC 2998; 23.4 µM (inactive) in the test on K562; 15.8 µM (inactive) with KM12; 20.4 µM (inactive) in the test on MOLT-4. In addition, the GI50 is 39.2 µM (inactive) with NCI-H460; 13.9 µM (inactive) with NCI-H522; 24.2 µM (inactive) in the test with OVCAR-4; 18.9 µM (inactive) in the test with RPMI-8226; 38.9 µM (inactive) with SF-268; 17.3 µM (inactive) in the test on SK-MEL-28. The GI50 was 23.1 µM (inactive) in the test on SK-MEL-5; 60.3 µM (inactive) in the test with SK-OV-3; > 100 µM (inactive) in the test on SNB-19; 41.4 µM (inactive) in the test with TK-10; 23.1 µM (inactive) in the test on UACC-257; 14.9 µM (inactive) with UACC-62. In addition, the GI50 with UO-31 is 35.3 µM (inactive).

Consider `Cc1cccc(C(C)(C)C)c1NC(=O)C(=O)C(c1cnc2ccccc2n1)[N+](=O)[O-]` (centres undefined), for which the GI50 in the test with A549 is > 100 µM (inactive); in the test with ACHN, > 100 µM (inactive); in the test with HCC 2998, > 100 µM (inactive); in the test with K562 it was > 100 µM (inactive); in the test on KM12 it was > 100 µM (inactive); with MOLT-4, 58.1 µM (inactive). In addition, the GI50 in the test on NCI-H460 was 62.2 µM (inactive); in the test on NCI-H522, 38.5 µM (inactive); in the test on OVCAR-4 it was > 100 µM (inactive); in the test on RPMI-8226 it was 60.3 µM (inactive); in the test on SF-268 it was > 100 µM (inactive); in the test on SK-MEL-28 it was > 100 µM (inactive). Moreover, the GI50 in the test on SK-MEL-5, in the test with SK-OV-3, in the test on SNB-19, in the test with TK-10, in the test on UACC-257 and in the test on UACC-62 was > 100 µM (inactive) throughout. Also, the GI50 in the test on UO-31 is > 100 µM (inactive).

For the compound `O=c1oc2ccc3ccccc3c2cc1-c1cn2c(n1)sc1ccccc12`, the GI50 is > 100 µM (inactive) with A549; > 100 µM (inactive) with ACHN; > 100 µM (inactive) in the test on HCC 2998; 2.69 µM (inactive) with K562; > 100 µM (inactive) with KM12; 3.06 µM (inactive) in the test with MOLT-4. The GI50 with NCI-H460, in the test with NCI-H522, in the test with OVCAR-4, in the test with RPMI-8226, in the test on SF-268 and in the test on SK-MEL-28 was > 100 µM (inactive) throughout. The GI50 in the test with SK-MEL-5 was > 100 µM (inactive); in the test with SK-OV-3, > 100 µM (inactive); with SNB-19, > 100 µM (inactive); in the test with TK-10, > 100 µM (inactive); with UACC-257 it was > 100 µM (inactive); with UACC-62, 92.7 µM (inactive). Moreover, the GI50 in the test with UO-31 was > 100 µM (inactive).

Consider `O=C(/C=C/c1ccccc1O)c1cccc2ccccc12`, for which the GI50 with A549 is > 80.2 µM (inactive); with ACHN it was > 100 µM (inactive); in the test on HCC 2998, > 74.1 µM (inactive); with K562 it was 32 µM (inactive); with KM12, 40.3 µM (inactive); in the test on MOLT-4, 21.1 µM (inactive). The GI50 in the test on NCI-H460 is > 84.1 µM (inactive); with NCI-H522 it was 51.9 µM (inactive); with OVCAR-4, 56.8 µM (inactive); in the test on RPMI-8226 it was 20.3 µM (inactive); with SF-268 it was 48.8 µM (inactive); in the test on SK-MEL-28, > 100 µM (inactive). Also, the GI50 with SK-MEL-5 was > 100 µM (inactive); with SK-OV-3, > 100 µM (inactive); in the test with SNB-19, 69.2 µM (inactive); in the test on TK-10, > 100 µM (inactive); with UACC-257, > 69.5 µM (inactive); in the test on UACC-62 it was > 100 µM (inactive). In the test on UO-31, the GI50 was > 47.4 µM (inactive).

With `O=C1OC2(c3ccccc3Oc3ccccc32)c2ccccc21`, the GI50 with A549 was > 100 µM (inactive); with ACHN, > 100 µM (inactive); with HCC 2998 it was > 100 µM (inactive); with K562, 50.8 µM (inactive); in the test on KM12, > 100 µM (inactive); in the test on MOLT-4, > 100 µM (inactive). Further, the GI50 in the test with NCI-H460 is > 100 µM (inactive); with NCI-H522, 69.8 µM (inactive); in the test with OVCAR-4, > 100 µM (inactive); in the test with RPMI-8226, > 100 µM (inactive); in the test on SF-268, > 100 µM (inactive); with SK-MEL-28, > 100 µM (inactive). In addition, the GI50 in the test with SK-MEL-5 was > 100 µM (inactive); in the test with SK-OV-3 it was > 100 µM (inactive); in the test on SNB-19 it was > 100 µM (inactive); in the test with TK-10, > 100 µM (inactive); in the test with UACC-257, 99.5 µM (inactive); in the test with UACC-62 it was > 100 µM (inactive). The GI50 in the test with UO-31 is > 100 µM (inactive).

`O=C1/C(=C/c2ccc(Br)cc2)CCC/C1=C\c1ccc(Br)cc1`: the GI50 is 12.4 µM (inactive) in the test with A549; 12.2 µM (inactive) with ACHN; 2.31 µM (inactive) in the test on HCC 2998; 4.31 µM (inactive) in the test with K562; 3.4 µM (inactive) with KM12; 7.11 µM (inactive) in the test on MOLT-4. Besides, the GI50 with NCI-H460 was 10.5 µM (inactive); in the test on NCI-H522 it was 13.6 µM (inactive); with OVCAR-4, 10.1 µM (inactive); in the test with RPMI-8226 it was 2.04 µM (inactive); with SF-268, 17.2 µM (inactive); in the test with SK-MEL-28, 2.12 µM (inactive). Further, the GI50 was 13.9 µM (inactive) in the test on SK-MEL-5; 56.8 µM (inactive) in the test with SK-OV-3; 18.9 µM (inactive) in the test on SNB-19; 27.5 µM (inactive) in the test with TK-10; 4.2 µM (inactive) in the test with UACC-257; 15.1 µM (inactive) with UACC-62. Also, the GI50 in the test on UO-31 was 12.3 µM (inactive).
